Data reported in patent publication US11173146B2, “Selective activators of the intermediate conductance CA2+activated K+ channel KCa3.1 and their methods of use” (The Regents of the University of California, priority 2014, dated 2021).
“Also recorded” adds a separate entry of the source. Like-named read-outs stand apart in the source and are kept apart here.

How the values were obtained:
KCa3.1 [1] = target: T1, KCa3.1 (Homo sapiens, UniProt O15554+P0DP23); conditions: literature; cited from earlier work
KCa2.1 = KCa2.1 (Homo sapiens, UniProt Q92952); conditions: literature, cited from earlier work
KCa3.1 [2] = target: T1, KCa3.1; experiment: Whole-cell patch-clamp KCa3.1 activation (QPatch, HEK-293); type: cell-based; parameters: host or cells: HEK-293; conditions: for effect of structural change on KCa2.3 and KCa3.1 activation compared with SKA-31: SAR, FIG. 2; for reduction of potency compared with SKA-31: KCa3.1
Excerpt: (§1) Cells, Cell lines and Clones. […] The cloning of hKCa2.3 (19 CAG repeats) and hKCa3.1 has been previously described (Wulff et al., 2000). The hKCa2.3 clone was later stably expressed in COS-7 cells at Aurora Biosciences Corp., San Diego, Calif. Cell lines stably expressing other mammalian ion channels were gifts from several sources: hKCa1.1 in HEK-293 cells (Andrew Tinker, University College London); hKV2.1 in HEK293 cells (James Trimmer, UC Davis); KV11.1 (HERG) in HEK-293 cells (Craig January, University of Wisconsin, Madison); hNaV1.4 in HEK-293 cells (Frank Lehmann-Horn, University of Ulm, Germany), hNaV1.5 in HEK-293 cells (Christopher Lossin, University of California Davis), and hCaV1.2 in HEK-293 cells (Franz Hofmann, Munich, Germany).
(§2) Electrophysiology. Experiments were conducted either manually with an EPC-10 amplifier (HEKA, Lambrecht/Pfalz, Germany) or on a QPatch-16 automated electrophysiology platform (Sophion Biosciences, Denmark). […] Patch pipettes were pulled from soda lime glass (micro-hematocrit tubes, Kimble Chase, Rochester, N.Y.) and had resistances of 2-3 MΩ. […] Free Ca^2+ concentrations were calculated with MaxChelator assuming a temperature of 25° C., a pH of 7.2 and an ionic strength of 160 mM. […] Na^+ aspartate Ringer was used as an external solution (in mM): 160 Na^+ aspartate, 4.5 KCl, 2 CaCl2, 1 MgCl2, 5 HEPES, pH 7.4, 290-310 mOsm. […] Reduction of both peak and tail current by the drug was determined. NaV1.7 currents were recorded with 30 ms pulses from −90 mV to −10 mV every 10 sec with a CsF-based pipette solution and normal Ringer as an external solution. CaV1.2 currents were elicited by 100-ms depolarizing pulses from −80 to 20 mV every 10 sec with a CsCl-based pipette solution and an external solution containing 30 mM BaCl2. Blockade of both Na^+ and Ca^2+ currents was determined as reduction of the current minimum.
For automated electrophysiology experiments cells were grown to ˜70% confluency, rinsed in sterile PBS containing 0.02% EDTA, and lifted with 2 mL of TrypLE™ Express (Gibco, Grand Island, N.Y.) for ˜2 min. When cells were rounded but not detached, they were dislodged by gentle tapping, suspended in DMEM, centrifuged and resuspended in 1 ml of external solution, placed into the Qfuge tube and resuspended in 150-200 μL extracellular solution after one additional spin on the QPatch. Whole-cell patch-clamp experiments were then carried out using disposable 16-channel planar patch chip plates (QPlates; patch hole diameter approximately 1 μm, resistance 2.00±0.02 MΩ). […] In order to avoid rejection of cells with large KCa3.1 currents the minimum seal resistance for whole-cell requirement was lowered to 0.001 GΩ. […] Following establishment of the whole-cell configuration, cells were held at −80 mV and KCa3.1, KCa2.1 or KCa2.2 currents elicited by a voltage protocol that held at −80 mV for 20 ms, stepped to −120 mV for 20 ms, ramped from −120 to 40 mV in 200 ms and then stepped back to −120 mV for 20 ms. This pulse protocol was applied every 10 s. […] NaV1.2 currents from N1E-115 cells, NaV1.4 and NaV1.5 currents from stably transfected HEK cells were recorded with 20 ms pulses from −90 mV to 0 mV every 10 sec with a KF-based internal solution and normal Ringer as an external solution. Current slopes (in ampere per sec) were measured using the SophionQPatch software and exported to Microsoft Excel and Origin 7.0 (OriginLab Corp. MA) for analysis. […] Data fitting to the Hill equation to obtain EC50 and IC50 values was performed with Origin 7.0. Data are expressed as mean±SD.

human KCa2.3 = target: T2, human KCa2.3 (Homo sapiens, UniProt Q9UGI6); experiment: Manual whole-cell patch-clamp KCa2.3 activation (COS-7); type: cell-based
T2 construct: The cloning of hKCa2.3 (19 CAG repeats) and hKCa3.1 has been previously described (Wulff et al., 2000)
Excerpt: as §1, §2
For all electrophysiology experiments solutions of benzothiazoles and benzooxazoles were always freshly prepared from 1 mM or 10 mM stock solutions in DMSO during the experiment. The final DMSO concentration never exceeded 1%. For automated assays glass vial inserts (Sophion Biosciences, Denmark) were filled with 350-400 μL of compound solution and placed into the glass insert base plate for use in the QPatch assay right before starting the QPatch.
The compounds synthesized by these methods as well as five commercially available compounds were tested for their KCa2.3 and KCa3.1 activating activity using either manual or automated whole-cell patch-clamp. Our group previously described the establishment of a QPatch assay for KCa3.1 modulators. […] We here made use of this assay and determined EC50 values for KCa3.1 activation using HEK-293 cells stably expressing human KCa3.1. Activities on human KCa2.3 were determined by manual electrophysioiogy since we currently only have KCa2.3 available in COS-7 cells, which are difficult to handle on the QPatch.

KCa2 channels = conditions: all three KCa2 channels; literature; cited from earlier work
[3] = tested on: porcine coronary arteries; experiment: Isometric myography on porcine coronary arteries, bradykinin-induced EDH-type relaxation; conditions: blocker 1 μM
Excerpt: Isometric Myography on Porcine Coronary Arteries (PCA). PCA were carefully dissected from hearts kindly provided by the local abattoir (Mercazaragoza, Zaragoza, Spain), cleaned of fat and connective tissue, and cut into 3-4 mm rings. Rings were mounted on hooks connected to an isometric force transducer (Pioden UF1, Graham Bell House, Canterbury, UK) and were pre-stretched to an initial tension of 1 g. […] Changes in tension were registered using a Mac Lab System/8e program (AD Instruments Inc., Milford, Mass.). The buffer contained the NO-synthase blocker, Nω-nitro-L-arginine (L-NNA, 300 μM), and the cyclooxygenase blocker indomethacin (10 μM) in order to measure EDH-type relaxation. […] After washout, rings were contracted with a high KCl buffer (60 mM) to determine maximal contraction. […] UCL1684 and U46619 were purchased from Tocris (Wiesbaden-Nordenstadt, Germany). Data analysis: EDH-type relaxations were determined as % change of U46619 contraction and are shown relative to the totally relaxed state (w/o U46619).

[4] = 250 nM free Ca2+, read-out: EC50 for KCa3.1 activation
[5] = Appendix A, read-out: KCa2.3 EC50
[6] = Appendix A, read-out: KCa3.1 EC50 (converted)
[7] = 250 nM free Ca2+, read-out: EC50 for KCa2.3 activation

T2 sequence (Q9UGI6 with tags, fused parts or gaps DUP76-80): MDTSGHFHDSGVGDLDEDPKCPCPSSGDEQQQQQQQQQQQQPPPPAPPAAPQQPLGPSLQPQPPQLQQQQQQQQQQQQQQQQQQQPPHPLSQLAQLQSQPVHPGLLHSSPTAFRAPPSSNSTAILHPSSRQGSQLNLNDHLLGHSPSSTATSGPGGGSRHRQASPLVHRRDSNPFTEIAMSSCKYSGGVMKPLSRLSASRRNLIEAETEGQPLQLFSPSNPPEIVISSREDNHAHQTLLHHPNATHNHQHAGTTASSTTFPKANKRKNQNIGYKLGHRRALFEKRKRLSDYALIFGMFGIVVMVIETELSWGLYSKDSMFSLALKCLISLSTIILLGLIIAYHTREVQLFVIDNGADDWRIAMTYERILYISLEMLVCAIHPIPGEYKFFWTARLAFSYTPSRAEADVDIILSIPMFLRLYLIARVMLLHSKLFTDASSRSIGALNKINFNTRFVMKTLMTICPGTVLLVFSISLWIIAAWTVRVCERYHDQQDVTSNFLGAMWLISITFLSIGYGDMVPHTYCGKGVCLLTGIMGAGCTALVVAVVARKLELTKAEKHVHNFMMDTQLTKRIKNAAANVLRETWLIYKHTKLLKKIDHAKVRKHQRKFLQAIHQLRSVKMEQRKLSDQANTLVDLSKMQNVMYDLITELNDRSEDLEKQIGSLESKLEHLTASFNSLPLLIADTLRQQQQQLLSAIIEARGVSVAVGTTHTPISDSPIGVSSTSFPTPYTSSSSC

Cc1cc(C)n(-c2nc(Nc3ccc(Cl)cc3)c3ncn(C)c3n2)n1 [NS13001]
activity on KCa3.1 (KCa3.1 [1]): completely inactive | activity on KCa2.1 (KCa2.1): completely inactive

Nc1nc2c(s1)Cc1ccccc1-2 [SKA-69, 8H-Indeno[1,2-d]thiazol-2-amine]
effect of structural change on KCa2.3 and KCa3.1 activation compared with SKA-31 (KCa3.1 [2]): reduced both potency and selectivity

Nc1nc2c(ccc3ccccc32)o1 [SKA-102, Naphtho[1,2-d]oxazol-2-amine]
EC50 (KCa3.1 [2]; [4]): 2700 nM | EC50 (human KCa2.3; [5]): 24000 nM

Cc1cc(C)c2ccc3sc(N)nc3c2c1 [SKA-109, 6,8-Dimethylnaphtho[1,2-d]thiazol-2-amine]
reduction of potency compared with SKA-31 (KCa3.1 [2]): 10 fold | melting point: 157 °C

CON=CNc1nc2nccc(C(C)Oc3ccc(Cl)cc3C)n2n1 (single isomer, unassigned; (-)) [(-)-CM-TMPF, N-{7-[1-(4-chloro-2-methylphenoxy)ethyl]-[1,2,4]triazolo[1,5-a]pyrimidin-2-yl}-N′-methoxy-formamidine]
KCa2.1 currents increased to % of their maximal activity (KCa2.1; Ca2+ concentrations between 10 and 100 nM): roughly 40%

COc1cccc2c1CCc1sc(N)nc1-2 [SKA-114, 6-Methoxy-4,5-dihydronaphtho[1,2-d]thiazol-2-amine]
effect of structural change on KCa2.3 and KCa3.1 activation compared with SKA-31 (KCa3.1 [2]): reduced both potency and selectivity | melting point: 200 °C

Cc1nc2c(ccc3ccccc32)s1 [SKA-74, 2-methylnaphtho[1,2-d]thiazole]
EC50 (KCa3.1 [2]; [6]): 7800 nM | effect of structural change on KCa2.3 and KCa3.1 activation compared with SKA-31 (KCa3.1 [2]): completely abolished activity

Cc1cc(C)c2c(c1)-c1nc(N)sc1CC2 [SKA-108, 6,8-Dimethyl-4,5-dihydronaphtho[1,2-d]thiazol-2-amine]
effect of structural change on KCa2.3 and KCa3.1 activation compared with SKA-31 (KCa3.1 [2]): reduced both potency and selectivity | melting point: 159 °C

Nc1nc2c(cc(Cl)c3ccccc32)s1 [SKA-72, 5-Chloronaphtho[1,2-d]thiazol-2-amine]
EC50 (KCa3.1 [2]; [4]): 110 nM | EC50 (human KCa2.3; [7]): 335 nM | melting point: 253 °C

CCn1c(=O)[nH]c2ccccc21 [EBIO, 1-ethylbenzimidazolin-2-one]
EC50 (KCa2 channels): ~300000 nM

CC1Cc2sc(N)nc2-c2ccccc21 (stereo not shown) [SKA-113, 5-Methyl-4,5-dihydronaphtho[1,2-d]thiazol-2-amine]
effect of structural change on KCa2.3 and KCa3.1 activation compared with SKA-31 (KCa3.1 [2]): reduced both potency and selectivity | melting point: 109 °C (dec.)

Nc1nc2c(cc3c4c(cccc42)CC3)s1 [SKA-73, 4,5-Dihydroaceoaphtho[5,4-d]thiazol-8-amine]
EC50 (KCa3.1 [2]; [4]): 1000 nM | EC50 (human KCa2.3; [7]): 1000 nM | melting point: 257 °C

Nc1nc(-c2cccc3ccccc23)cs1 [SKA-75, 2-Amino-4-(1-naphthyl)thiazole]
effect of structural change on KCa2.3 and KCa3.1 activation compared with SKA-31 (KCa3.1 [2]): reduced both potency and selectivity

Clc1ccccc1C(c1ccccc1)(c1ccccc1)n1cccn1 [TRAM-34, 1-[(2-chlorophenyl)diphenylmethyl]-1H-pyrazole, reference compound]
effect on the potentiation of BK-induced relaxation by SKA-111/SKA-121 [3]: prevented the increase of relaxation; also recorded: prevented this potentiation

Nc1nc2c(cc(F)c3ccccc32)s1 [SKA-106, 5-Fluoronaphtho[1,2-d]thiazol-2-amme]
reduction of potency compared with SKA-31 (KCa3.1 [2]): roughly 10 fold

Cc1nc2cc3ccccc3cc2o1 [SKA-104, 2-methylnaphtho[2,3-d]oxazole]
EC50 (KCa3.1 [2]; [6]): > 50000 nM | effect of structural change on KCa2.3 and KCa3.1 activation compared with SKA-31 (KCa3.1 [2]): completely abolished activity

Nc1nc2c(s1)CCc1ccccc1-2 [SKA-70, 4,5-Dihydronaphtho[1,2-d]thiazol-2-amine]
effect of structural change on KCa2.3 and KCa3.1 activation compared with SKA-31 (KCa3.1 [2]): reduced both potency and selectivity

Cc1cc2oc(N)nc2c2ccccc12 [SKA-120, 5-Methylnaphtho[1,2-d]oxazol-2-amine]
EC50 (KCa3.1 [2]; [4]): 180 nM | EC50 (KCa3.1 [2]; [6]): 450 nM | selectivity for KCa3.1 over KCa2.3 (KCa3.1 [2]; ratio of EC50 values): ~50 fold

Nc1nc(-c2ccc3ccccc3c2)cs1 [SKA-76, 2-amino-4-(2-naphthyl)thiazole]
effect of structural change on KCa2.3 and KCa3.1 activation compared with SKA-31 (KCa3.1 [2]): reduced both potency and selectivity

Nc1nc2c(ccc3sccc32)s1 [SKA-110, Thieno[2′,3′:5,6]benzo[1,2-d]thiazol-2-amine]
effect of structural change on KCa2.3 and KCa3.1 activation compared with SKA-31 (KCa3.1 [2]): reduction in potency | melting point: 161 °C

Nc1nc2c3c(ccc2s1)CCC3 [SKA-81, 7,8-Dihydro-6H-indeno[4,5-d]thiazol-2-amine]
effect of structural change on KCa2.3 and KCa3.1 activation compared with SKA-31 (KCa3.1 [2]): reduction in potency | melting point: 195 °C

Nc1nc2c(s1)Cc1cc(F)ccc1-2 [SKA-71, 6-Fluoro-8H-indeno[1,2-d]thiazol-2-amine]
effect of structural change on KCa2.3 and KCa3.1 activation compared with SKA-31 (KCa3.1 [2]): reduced both potency and selectivity | melting point: 217 °C (dec.)

Cc1cc(NC2CCCCC2)nc(-n2nc(C)cc2C)n1 [CyPPA, cyclohexyl-[2-(3,5-dimethyl-pyrazole-1-yl-)6-methyl-pyrimidin-4-yl]-amine]
activity on KCa3.1 (KCa3.1 [1]): completely inactive | activity on KCa2.1 (KCa2.1): completely inactive

COc1cc2sc(N)nc2c2ccccc12 [SKA-117, 5-Methoxynaphtho[1,2-d]thiazol-2-amine]
effect of structural change on KCa2.3 and KCa3.1 activation compared with SKA-31 (KCa3.1 [2]): reduced potency and selectivity | melting point: 213 °C

c1cc2cc(c1)C[n+]1ccc(c3ccccc31)NCc1ccc(cc1)CNc1cc[n+](c3ccccc13)C2 [UCL1684, 6,10-diaza-3(1,3)8,(1,4)-dibenzena-1,5(1,4)-diquinolinacyclodecaphane, reference compound]
effect on KCa2.3 currents activated by 20 μM SKA-121 (human KCa2.3; FIG. 4F): had a similar effect

CC1=Nc2c(ccc3ccccc23)C1(C)C [SKA-92, 2,3,3-trimethyl-3H-benzo[g]indole]
EC50 (KCa3.1 [2]; [6]): 42000 nM | effect of structural change on KCa2.3 and KCa3.1 activation compared with SKA-31 (KCa3.1 [2]): completely abolished activity | EC50 (human KCa2.3; [5]): > 50000 nM

N#Cc1cc2sc(N)nc2c2ccccc12 [SKA-107, 2-Aminonaphtho[1,2-d]thiazole-5-carbonitrile]
effect of structural change on KCa2.3 and KCa3.1 activation compared with SKA-31 (KCa3.1 [2]): reduced potency and selectivity | melting point: 265 °C
